Values quoted from earlier work as cited in patent US20050272704A1, “Compounds, compositions and methods for stabilizing transthyretin and inhibiting transthyretin misfolding” (priority 2004, published 2005).
Read-outs that look alike come from different tables or passages of the source.

- diflunisal concentration in blood (4 h after a single 500 mg dose): > 300 µM
- diflunisal concentration in blood (20 h after a single 500 mg dose): exceed 30 μM
Compound: O=C(O)c1cc(-c2ccc(F)cc2F)ccc1O [diflunisal]
